Experimental findings from PubChem BioAssay AID488800 (Sanford-Burnham Center for Chemical Genomics, 2010) are described below.

The target in the assay is yeast expressing human caspase-1/ASC, counter-screen read-out. In words: CASP1-PYCARD signal inhibition in yeast, concentration-response, counterassay for NLRP3 inhibitor project (AID 488800).

The structures appear in SMILES notation. Calls of active or inactive are those of the source. Cut-off not given; nearly all actives show IC50 up to about 10 µM.

Turning to `N#Cc1ccc(NC(=O)Nc2ccc(Cl)cc2)cc1`, the IC50 (in general, the concentration needed to halve the response being measured) was 2.98 µM.

With `CC(N)C(=O)OC(C)(C)Cc1ccc(Cl)cc1` (stereo not drawn), the IC50 was 4.3 µM.

For the molecule `CCCCCCCCCn1c2c(c(=N)c3c1CCC3)CCC2`, the IC50 is 6.26 µM. The result for `CCCC1CCC(c2ccc(OCC)cc2)=CC1=O` (stereo not drawn) reads 4.85 µM. For the molecule `CCCOc1ccc(C(=O)NNC(=S)NC(=O)c2cccs2)cc1`, the IC50 was 2.93 µM. With `CCCCCNC(=O)C(=O)C1C(=O)Nc2ccccc21` (stereo not drawn), the IC50 was 1.78 µM. Regarding `Brc1ccc(-n2cnc(-c3ccccc3)c2)cc1`, the IC50 is 10.1 µM. As to `CCCCCC(=O)N1CCN(CCN=CC2=C(O)CC(c3ccco3)CC2=O)CC1` (stereo not drawn), the IC50 is 8.62 µM. For `COc1cccc(NC(=O)c2ccccc2)c1`, the IC50 was 4.54 µM.

`O=c1cc(-c2ccccc2Cl)oc2ccc([N+](=O)[O-])c(O)c12`: the IC50 is 1.89 µM. Take `O=C(Nc1cccc(Cl)c1)c1cnn2cccnc12`: the IC50 was 4.35 µM. For the molecule `O=C(NC(=S)NNC(=O)c1ccccc1O)c1ccc(F)cc1`, the IC50 is 1.82 µM. The value for `O=C(NCCC1=CCCCC1)c1c(O)nc2sccn2c1=O` was 2.24 µM. On to `O=C(Nc1cccc(Br)c1)c1cc2ccccc2o1`, for which the IC50 is 3.37 µM. The value for `Oc1c(/C=N/c2ccccn2)sc2ccccc12` was 3.8 µM; that for `O=C(CCS(=O)(=O)c1ccccc1)N(CCCN1CCOCC1)c1nc2c(F)cccc2s1` was 1.05 µM; that for `CCSc1nsc(NC(=O)Nc2cccc(F)c2)n1` was 1.22 µM.

As for `CC(=O)Oc1c(I)cc(I)cc1C(=O)Nc1ccc(Cl)cc1`, the IC50 is 0.813 µM. For the molecule `CCOC(=O)c1ccc2c(c1)nc(COc1ccc(OC)cc1)n2CC`, the IC50 was 9.83 µM. As for `CCN(CC)c1ccc2nc3ccc(N)cc3[n+](-c3ccccc3)c2c1`, the IC50 is 1.08 µM. As to `O=C(Nc1scc(-c2ccccc2)c1C(=O)O)c1ccc(F)cc1`, the IC50 is 4.03 µM.

For the molecule `O=c1c2cc(Br)ccc2nc(-c2ccc([N+](=O)[O-])cc2)n1O`, the IC50 is 2.39 µM.

For the molecule `Cc1onc(-c2ccccc2Cl)c1C(=O)N1C=CC(C(F)(F)F)=NCC1`, the IC50 was 6.51 µM. `CN(CCOc1ccccc1)c1ccc(S(=O)(=O)N2CCCCC2)cn1`: the IC50 is 5.1 µM.

`CCN1/C(=C/C=C/c2oc3ccc(-c4ccccc4)cc3[n+]2CC)Oc2ccc(-c3ccccc3)cc21`: the IC50 was 8.93 µM. On to `CC(=O)N(/N=C1\Sc2ccccc2C1=O)c1ccccc1C`, for which the IC50 was 4.55 µM. As for `Cc1cccc(C(=O)O/N=C(\N)Cc2cccc3ccccc23)c1`, the IC50 is 1.72 µM. For the molecule `c1ccc(Sc2cccc3ccccc23)c(CNC2=NCCN2)c1`, the IC50 was 7.62 µM. For the molecule `Cn1c(=O)c(C(=O)Nc2ncccn2)c(O)c2ccccc21`, the IC50 is 3.18 µM. For `CC(C)NC(=O)c1c(O)c2ccccc2[nH]c1=O`, the IC50 is 1.19 µM.

Regarding `O=C(NNC(=S)NC(=O)c1ccc(Br)cc1)c1ccc([N+](=O)[O-])cc1`, the IC50 is > 100 µM (inactive).

In the case of `COc1cc(CNCCc2ccccc2)ccc1OCc1ccc(Cl)nc1`, the IC50 was 4.86 µM. Consider `C=CCc1c(C)nc(C)nc1N/N=C/c1ccccc1O`, for which the IC50 was 9.37 µM.

`CCC1Nc2ncnc(N3CCN(c4ccccn4)CC3)c2N(Cc2ccc(Br)cc2)C1=O` (stereo not drawn): the half-maximal inhibitory concentration (IC50) is 3.3 µM. `Cn1c(=O)c(C(=O)NNC(=O)c2ccccc2F)c(O)c2ccccc21`: the IC50 is 1.56 µM. Turning to `c1ccc(C2Nc3ccccc3C3OCCCC23)cc1` (stereo not drawn), the IC50 is 0.881 µM.

On to `O=C(NCCCc1ccccc1)c1c(O)nc2sccn2c1=O`, for which the IC50 was 2.42 µM.

As for `Cc1csc2nc(O)c(C(=O)NCCC3=CCCCC3)c(=O)n12`, the IC50 is 2.33 µM. As to `COc1ccc(CNC(=O)c2c(C)oc3c2C(=O)c2ccccc2C3=O)cc1`, the IC50 is 3.11 µM. In the case of `COc1c(OC(C)=O)c(=O)n2c3ccccc3c3ccnc1c32`, the IC50 was 0.665 µM. As for `COc1ccc(NC(=O)C#Cc2ccccc2)cc1`, the IC50 was 1.44 µM. With `CCN(CC)c1ccc2nc3ccccc3[n+](CC)c2c1`, the IC50 is 6.23 µM. Consider `Cc1ccc(NC(=O)c2nc(S(=O)(=O)Cc3ccccc3)ncc2Cl)cc1`, for which the IC50 was 1.67 µM. The value for `O=c1c2ccc(Cl)cc2nc(-c2cccc(C(F)(F)F)c2)n1O` was 2.67 µM; that for `CCC1Nc2ncnc(N3CCN(c4ccccn4)CC3)c2N(Cc2ccc(Cl)cc2)C1=O` (stereo not drawn) was 3.32 µM. In the case of `CCCCCCCCn1c2c(c(=N)c3ccccc31)CCC2`, the IC50 is 8.75 µM. As for `Nc1ccc(Oc2cc(N)cc(Oc3ccccc3)c2)cc1`, the IC50 was 4.58 µM.

With `CN(CC(=O)N1CCc2ccccc2C1)c1ccccc1`, the IC50 was 2.22 µM.

`O=c1c2cc(Cl)ccc2nc(-c2ccc([N+](=O)[O-])cc2)n1O`: the IC50 was 2.7 µM.

Consider `O=C(Nc1ccc(Cl)cc1)Nc1ccc(Cl)c(Cl)c1`, for which the IC50 was 0.805 µM. With `C[C@@H]1C[C@@H]2O[C@H]2/C=C\C=C\C(=O)Cc2c(Cl)c(O)cc(O)c2C(=O)O1`, the IC50 was 5.66 µM. On to `O=C(Nc1cccc(Cl)c1)c1cc(N=Nc2ccc([N+](=O)[O-])cc2Cl)ccc1O`, for which the IC50 is 0.566 µM. The result for `CCOC(=O)N1C(=O)C2(CCCCC2)N(c2ccccc2Cl)C1=S` reads 10.6 µM.
